# Assay results: patent US4962109A, “Insecticidally and acaricidally active pyrimidine esters and intermediates therefor” (Imperial Chemical Industries PLC, priority 1985, dated 1990)
# What was measured:
# Assay type in all cases: in vivo
# [1] = system: Spodoptera exigua (lesser army worm - larvae); assay: Residual test on lesser army worm larvae (SP), Cotton leaf, mortality; conditions: 48 h, residual, 2 days, read-out: SP grading of mortality
# Experimental: (§1) The activity of the Product was determined using a variety of insect pests. The Product was used in the form of liquid preparations containing 500, 250 or 100 parts per million (ppm) by weight of the Product. The preparations were made by dissolving the Product in acetone and diluting the solutions with water containing 0.01% by weight of a wetting agent sold under the trade name "LISSAPOL" NX until the liquid preparations contained the required concentration of the Product. "Lissapol" is a Registered Trade Mark.
# (§2) The test procedure adopted with regard to each pest was basically the same and comprised supporting a number of the pests on a medium which was usually a host plant or a foodstuff on which the pests feed, and treating either or both the pests and the medium with the preparations. The mortality of the pests was then assessed at periods usually varying from one to three days after the treatment.
# (§3) The results of the tests are given in Table III for each of the Products, at the rate in parts per million given in the second column as a grading of mortality designated as A, B or C wherein A indicates 80-100% mortality or knockdown, B indicates 50-79% mortality or knockdown and C indicates less than 50% mortality or knockdown.
# (lesser army worm - larvae)
# [2] = system: Musca domestica (houseflies - adults); assay: Knockdown test on houseflies - adults (MD/KD), Cotton wool/sugar; conditions: 4 hours, read-out: MD/KD grading of knockdown
# Experimental: as §1, §2
# In the case of the species Musca domestica (housefly), additional tests to determine the knockdown effect of the compounds were performed. PG,163
# as §3
# [3] = system: Diabrotica balteata (rootworm larvae); assay: Residual test on rootworm larvae (DB), Filter paper/maize seed, mortality; conditions: 48 h, residual, 2 days, read-out: DB grading of mortality
# Experimental: as §1, §2, §3
# [4] = system: Tetranychus urticae (spider mites - ova); assay: Contact test on spider mites - ova (TUe), French bean leaf, mortality; conditions: 144 h, contact, 6 days, read-out: TUe grading of mortality
# Experimental: as §1, §2, §3
# [5] = system: Tetranychus urticae (spider mites - adult); assay: Contact test on spider mites - adult (TUa), French bean leaf, mortality; conditions: 72 h, contact, 3 days, read-out: TUa grading of mortality
# Experimental: as §1, §2, §3
# [6] = system: Heliothis virescens (tobacco budworm - larvae); assay: Residual test on tobacco budworm larvae (HV), Cotton leaf, mortality; conditions: 48 h, read-out: HV grading of mortality
# Experimental: as §1, §2, §3
# (tobacco budworm - larvae)
# [7] = system: Nephotettix cincticeps (green leaf hopper - nymphs); assay: Contact test on green leaf hopper nymphs (NC), Rice plant, mortality; conditions: 48 h, contact, 2 days, read-out: NC grading of mortality
# Experimental: as §1, §2, §3
# NC Nephotettix cincticeps
# [8] = system: Blattella germanica (cockroach nymphs); assay: Contact test on cockroach nymphs (BG/C), Plastic pot, mortality; conditions: 48 h, contact, 2 days, read-out: BG/C grading of mortality
# Experimental: as §1, §2, §3
# BG/C Blattella germanica
# [9] = system: Myzus persicae (aphids); assay: Contact test on aphids (MP), Chinese Cabbage leaf, mortality; conditions: 72 h, contact, 3 days, read-out: MP grading of mortality
# Experimental: as §1, §2, §3
# [10] = system: Musca domestica (houseflies - adults); assay: Contact test on houseflies - adults (MD), Cotton wool/sugar, mortality; conditions: 72 h, contact, 3 days, read-out: MD grading of mortality
# Experimental: as §1, §2, §3
SMILES,mortality at 500 ppm [1] [%],pest or weed control at 500 ppm [2] [%],mortality at 500 ppm [3] [%],mortality at 500 ppm [4] [%],mortality at 500 ppm [5] [%],mortality at 500 ppm [6] [%],mortality at 500 ppm [7] [%],mortality at 500 ppm [8] [%],mortality at 500 ppm [9] [%],mortality at 500 ppm [10] [%],mortality at 1000 ppm ([1]; 1000 ppm) [%],pest or weed control at 1000 ppm ([2]; 1000 ppm) [%],mortality at 1000 ppm ([3]; 1000 ppm) [%],mortality at 1000 ppm ([4]; 1000 ppm) [%],mortality at 1000 ppm ([5]; 1000 ppm) [%],mortality at 1000 ppm [6] [%],mortality at 1000 ppm ([7]; 1000 ppm) [%],mortality at 1000 ppm ([8]; 1000 ppm) [%],mortality at 1000 ppm ([9]; 1000 ppm) [%],mortality at 1000 ppm ([10]; 1000 ppm) [%]
"CC(C)(C)c1ncc(C(C(=O)OCc2c(F)c(F)c(F)c(F)c2F)C(C)(C)C)cn1 (racemic) [Compound 30, 2,3,4,5,6-pentafluorobenzyl (RS)-2-[2-(1,1-dimethylethyl)pyrimidin-5-yl]-3,3-dimethylbutanoate]",80 to 100,80 to 100,80 to 100,< 50,80 to 100,80 to 100,80 to 100,< 50,80 to 100,80 to 100,–,–,–,–,–,–,–,–,–,–
"CC(C)(C)c1ncc([C@H](C(=O)O[C@H](c2cccc(Oc3ccccc3)n2)C(F)(F)F)C(C)(C)C)cn1 (racemic) [Compound 32, (RS)-1-(6-phenoxypyrid-2-yl)-2,2,2-trifluoroethyl (RS)-2-[2-(1,1-dimethylethyl)pyrimidin-5-yl]-3,3-dimethylbutanoate]",80 to 100,80 to 100,80 to 100,50 to 79,80 to 100,80 to 100,80 to 100,< 50,80 to 100,80 to 100,–,–,–,–,–,–,–,–,–,–
"COCc1c(F)c(F)c(COC(=O)C(c2cnc(C(F)(F)F)nc2)C(C)(C)C)c(F)c1F (racemic) [Compound 41, 2,3,5,6-tetrafluoro-4-(methoxymethyl)benzyl (RS)-2-[2-(trifluoromethyl)pyrimidin-5-yl]-3,3-dimethylbutanoate]",80 to 100,80 to 100,< 50,< 50,80 to 100,80 to 100,80 to 100,80 to 100,80 to 100,80 to 100,–,–,–,–,–,–,–,–,–,–
"CCC(C)(C)c1ncc([C@H](C(=O)O[C@H](C)c2cccc(Oc3ccccc3)n2)C(C)(C)C)cn1 (racemic) [Compound 57, (RS)-1-(6-phenoxypyrid-2-yl)ethyl (RS)-2-[2-(1,1-dimethylpropyl)pyrimidin-5-yl]-3,3dimethylbutanoate]",80 to 100,80 to 100,< 50,< 50,80 to 100,80 to 100,80 to 100,< 50,80 to 100,80 to 100,–,–,–,–,–,–,–,–,–,–
"CCC(C)(C)c1ncc(C(C(=O)OCc2c(F)c(F)c(COC)c(F)c2F)C(C)(C)C)cn1 (racemic) [Compound 61, 2,3,5,6-tetrafluoro-4-(methoxymethyl)benzyl (RS)-2-[2-(1,1-dimethylpropyl)pyrimidin-5-yl]-3,3-dimethylbutanoate]",80 to 100,80 to 100,< 50,< 50,80 to 100,< 50,80 to 100,< 50,80 to 100,80 to 100,–,–,–,–,–,–,–,–,–,–
"CCC(C)(C)c1ncc(C(C(=O)OCc2ccc(F)c(Oc3ccccc3)c2)C(C)(C)C)cn1 (racemic) [Compound 68, 4-fluoro-3-phenoxybenzyl (RS)-2-[2-(1,1-dimethylpropyl)pyrimidin-5-yl]-3,3-dimethylbutanoate]",50 to 79,< 50,< 50,< 50,80 to 100,80 to 100,80 to 100,< 50,80 to 100,< 50,–,–,–,–,–,–,–,–,–,–
"CC(C)c1ncc([C@H](C(=O)O[C@H](C)c2cccc(Oc3ccccc3)n2)C(C)(C)C)cn1 (racemic) [Compound 74, (RS)-1-(6-phenoxypyridin-2-yl)ethyl (RS)-2-[2-(1-methylethyl)pyrimidin-5-yl]-3,3-dimethylbutanoate]",80 to 100,< 50,< 50,< 50,80 to 100,80 to 100,80 to 100,< 50,50 to 79,50 to 79,–,–,–,–,–,–,–,–,–,–
"COCc1c(F)c(F)c(COC(=O)C(c2cnc(C(C)C)nc2)C(C)(C)C)c(OC)c1F (racemic) [Compound 76, 3,5,6-trifluoro-2-methoxy-4-(methoxymethyl)benzyl (RS)-2-[2-(1-methylethyl)pyrimidin-5-yl]-3,3-dimethylbutanoate]",80 to 100,80 to 100,< 50,< 50,80 to 100,80 to 100,80 to 100,50 to 79,80 to 100,50 to 79,–,–,–,–,–,–,–,–,–,–
"CC(OC(=O)C(c1cnc(C2CC2)nc1)C(C)(C)C)c1cccc(Oc2ccccc2)n1 (racemic) [Compound 78, RS-1-(6-phenoxypyrid-2-yl)ethyl (RS)-2-(2-cyclopropylpyrimidin-5-yl)-3,3-dimethylbutanoate]",80 to 100,80 to 100,80 to 100,50 to 79,80 to 100,80 to 100,80 to 100,50 to 79,80 to 100,< 50,–,–,–,–,–,–,–,–,–,–
"CC(OC(=O)C(c1cnc(-c2ccccc2)nc1)C(C)(C)C)c1cccc(Oc2ccccc2)n1 (racemic) [Compound 82, (RS)-1-(6-phenoxpyrid-2-yl)ethyl (RS)-2-(2-phenylpyrimidin-5-yl)-3,3-dimethylbutanoate]",–,–,–,–,–,–,–,–,–,–,80 to 100,80 to 100,< 50,< 50,80 to 100,80 to 100,80 to 100,< 50,80 to 100,< 50
"C#CCc1c(F)c(F)c(COC(=O)C(c2cnc(C(C)(C)C)nc2)C2CC2)c(F)c1F (racemic) [Compound 91, 2,3,5,6-tetrafluoro-4-(prop-2-yn-1-yl)benzyl (RS)-2-[2-(1,1-dimethylethyl)pyrimidin-5-yl]-2-cyclopropylacetate]",80 to 100,80 to 100,80 to 100,80 to 100,80 to 100,80 to 100,80 to 100,80 to 100,80 to 100,80 to 100,–,–,–,–,–,–,–,–,–,–
"COCc1c(F)c(F)c(COC(=O)C(c2cnc(C(C)C)nc2)C(C)(C)C)c(F)c1F (racemic) [Compound 131, 2,3,5,6-tetrafluoro-4-(methoxymethyl)benzyl (RS)-2-[2-(1-methylethyl)-pyrimidin-5-yl]-3,3dimethylbutanoate]",80 to 100,80 to 100,80 to 100,80 to 100,80 to 100,< 50,80 to 100,< 50,80 to 100,< 50,–,–,–,–,–,–,–,–,–,–
"COCc1c(F)c(F)c(COC(=O)C(c2cnc(C3CC3)nc2)C(C)(C)C)c(F)c1F (racemic) [Compound 135, 2,3,5,6-tetrafluoro-4-(methoxymethyl)benzyl (RS)-2-(2-cyclopropylpyrimidin-5-yl)-3,3-dimethylbutanoate]",80 to 100,80 to 100,80 to 100,80 to 100,80 to 100,< 50,80 to 100,< 50,80 to 100,80 to 100,–,–,–,–,–,–,–,–,–,–
